# In patent US20160061816A1, “SCREENING METHOD FOR ION CHANNEL MODULATORS USING MUTATED BKCA CHANNEL” (GWANGJU INSTITUTE OF SCIENCE AND TECHNOLOGY, priority 2013, published 2016):
# Tests used:
# G733D/N736K BKCa channel [1] = biological target: T1, G733D/N736K BKCa channel (Homo sapiens, UniProt Q12791, G856D/N859K); assay: FluxOR fluorescence-based assay, cells stably expressing G733D/N736K BKCa channel; format: cell-based
# T1 construct: NO: 4; expressed in transfected cells
# Experimental: (§1) Commercially available FluxOR™ Potassium Ion Channel Assay (Invitrogen) was used in order to perform a fluorescence-based assay for BKCa channels. AD-293 cells stably expressing WT and G733D/N736K BKCa channels were plated onto a poly-D-lysine (Sigma)-coated 96-well microplate (Corning) (5×10^4 cells per well). Cells were pre-cultured with a test compound, CTBIC (4-chloro-7-(trifluoromethyl)-10H-benzofuro[3,2-b]indole-1-carboxylic acid) for 30 minutes in advance of the recording. The fluorescence signal was measured using a Synergy™ H1 Hybrid Multi-Mode Microplate Reader (BioTek Instrument, Inc., Winnoski, Vt.) with Gen5 software. […] The microplate was read every 15 seconds in order to identify whether or not the system of the present invention is suitable for high throughput screening using a standard fluorimeter.
# (§2) Finally, the present inventors performed experiments to determine whether cells stably expressing hyperactive BKCa channels are suitable for high-throughput screening for channel activators. […] When cells reached 80% to 90% confluence, FluxOR™ signals were measured. Further, the fluorescence signals from parental AD-293 cell lines were measured as a control group. Prior to reading out the fluorescence, the cells were pre-treated with 10 μM CTBIC or DMSO (control group). […] Relative fluorescence unit (RFU) values increased up to 2.3-fold as compared to basal responses.
# WT BKCa channel [2] = biological target: T2, WT BKCa channel (Homo sapiens, UniProt Q12791); assay: FluxOR fluorescence-based assay, cells stably expressing WT BKCa channel; settings: 10 μM CTBIC, stable cell lines expressing WT channel, FIG. 5b
# T2 construct: expressed in transfected cells
# Experimental: as §1, §2
# parental AD-293 cells = assay: FluxOR fluorescence-based assay, parental cell line (control); settings: 10 μM CTBIC, FIG. 5a
# Experimental: as §1, §2
# WT BKCa channel [3] = biological target: T2, WT BKCa channel; assay: Patch clamp macroscopic current recording, WT BKCa channel; format: cell-based
# Experimental: Macroscopic current recordings were performed using a gigaohm seal patch clamp method. Patch pipettes were made from borosilicate glass (WPI, Sarasota, Fla.), and then fire polished with resistance of 3-5 MΩ. The channel currents were amplified using Axopatch 200B amplifier (Axon Instruments, Foster City, Calif.), low-pass filtered at 1 or 2 kHz using a four-pole Bessel filter, and then digitized at a rate of 10 or 20 points/ms using a Digidata 1200 A digitizer (Axon Instruments). The ionic currents of BKCa channels were activated by voltage-clamped pulses delivered from a holding potential of −100 mV to membrane potentials ranging from −80 mV to 200 mV in increments of 10 mV. The intracellular and extracellular solutions contained, unless otherwise specified, 116 mM KOH (Sigma), 4 mM KCl (Sigma), 10 mM HEPES and 5 mM EGTA (Sigma), and were titrated to pH 7.2 using MES (2-(N-morpholino)ethanesulfonic acid). In order to precisely measure [Ca^2+]i, the appropriate amount of total […] to be added to the intracellular solution was calculated using MaxChelator software (Patton, et al., 2004; http://maxchelator.stanford.edu/). […]
# G733D/N736K BKCa channel [4] = biological target: T1, G733D/N736K BKCa channel; assay: Patch clamp macroscopic current recording, G733D/N736K BKCa channel; format: cell-based
# Experimental: Macroscopic current recordings were performed using a gigaohm seal patch clamp method. Patch pipettes were made from borosilicate glass (WPI, Sarasota, Fla.), and then fire polished with resistance of 3-5 MΩ. The channel currents were amplified using Axopatch 200B amplifier (Axon Instruments, Foster City, Calif.), low-pass filtered at 1 or 2 kHz using a four-pole Bessel filter, and then digitized at a rate of 10 or 20 points/ms using a Digidata 1200 A digitizer (Axon Instruments). The ionic currents of BKCa channels were activated by voltage-clamped pulses delivered from a holding potential of −100 mV to membrane potentials ranging from −80 mV to 200 mV in increments of 10 mV. The intracellular and extracellular solutions contained, unless otherwise specified, 116 mM KOH (Sigma), 4 mM KCl (Sigma), 10 mM HEPES and 5 mM EGTA (Sigma), and were titrated to pH 7.2 using MES (2-(N-morpholino)ethanesulfonic acid). In order to precisely measure [Ca^2+]i, the appropriate amount of total […] to be added to the intracellular solution was calculated using MaxChelator software (Patton, et al., 2004; http://maxchelator.stanford.edu/).
# In order to evaluate the suitability of cell lines stably expressing G733D/N736K channels as a platform for identification of BKCa channel modulators, the function of a strong BKCa channel activator, CTBIC, which potentiates mutated channel activity, was investigated (Gormemis, et al., 2005; Lee, et al., 2012). […] The relative conductance (G/Gmax) was obtained by normalizing the tail currents (evoked by a step hyperpolarization to −100 mV from a given voltage) to the maximum tail current. The G/Gmax values at 0 μM and 10 μM CTBIC were fitted using a Boltzmann function.
# T2 sequence (Q12791 1-1178 isoform Q12791-5): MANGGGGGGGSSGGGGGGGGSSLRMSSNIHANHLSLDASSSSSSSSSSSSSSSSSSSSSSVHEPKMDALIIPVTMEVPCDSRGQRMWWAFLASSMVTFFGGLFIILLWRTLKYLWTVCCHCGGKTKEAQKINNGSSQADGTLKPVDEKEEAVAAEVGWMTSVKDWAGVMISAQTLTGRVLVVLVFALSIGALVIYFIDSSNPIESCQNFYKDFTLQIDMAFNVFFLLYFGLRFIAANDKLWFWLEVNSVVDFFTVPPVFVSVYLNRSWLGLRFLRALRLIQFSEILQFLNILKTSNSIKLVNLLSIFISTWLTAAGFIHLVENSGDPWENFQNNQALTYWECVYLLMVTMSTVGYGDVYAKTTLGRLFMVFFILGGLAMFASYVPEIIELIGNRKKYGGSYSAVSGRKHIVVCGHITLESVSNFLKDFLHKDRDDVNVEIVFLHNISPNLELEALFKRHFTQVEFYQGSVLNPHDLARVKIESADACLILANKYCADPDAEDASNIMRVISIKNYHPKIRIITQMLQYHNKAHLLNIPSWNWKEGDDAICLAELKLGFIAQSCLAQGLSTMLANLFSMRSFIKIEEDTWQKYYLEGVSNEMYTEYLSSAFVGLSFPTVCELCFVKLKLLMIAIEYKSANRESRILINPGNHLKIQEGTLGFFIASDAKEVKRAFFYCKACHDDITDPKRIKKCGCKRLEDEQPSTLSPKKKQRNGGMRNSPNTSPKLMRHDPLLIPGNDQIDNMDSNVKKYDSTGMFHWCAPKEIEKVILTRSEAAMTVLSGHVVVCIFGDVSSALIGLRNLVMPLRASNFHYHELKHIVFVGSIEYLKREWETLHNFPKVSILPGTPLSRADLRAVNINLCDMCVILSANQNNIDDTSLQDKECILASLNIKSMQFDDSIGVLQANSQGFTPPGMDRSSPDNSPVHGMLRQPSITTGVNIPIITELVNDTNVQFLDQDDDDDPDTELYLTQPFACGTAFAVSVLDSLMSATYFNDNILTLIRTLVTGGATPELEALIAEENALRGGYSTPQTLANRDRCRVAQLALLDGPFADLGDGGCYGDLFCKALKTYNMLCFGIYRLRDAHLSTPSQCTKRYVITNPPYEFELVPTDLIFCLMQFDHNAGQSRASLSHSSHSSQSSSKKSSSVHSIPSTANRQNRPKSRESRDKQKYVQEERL
# T1 sequence (Q12791 66-1178 isoform Q12791-5 G798D/N801K): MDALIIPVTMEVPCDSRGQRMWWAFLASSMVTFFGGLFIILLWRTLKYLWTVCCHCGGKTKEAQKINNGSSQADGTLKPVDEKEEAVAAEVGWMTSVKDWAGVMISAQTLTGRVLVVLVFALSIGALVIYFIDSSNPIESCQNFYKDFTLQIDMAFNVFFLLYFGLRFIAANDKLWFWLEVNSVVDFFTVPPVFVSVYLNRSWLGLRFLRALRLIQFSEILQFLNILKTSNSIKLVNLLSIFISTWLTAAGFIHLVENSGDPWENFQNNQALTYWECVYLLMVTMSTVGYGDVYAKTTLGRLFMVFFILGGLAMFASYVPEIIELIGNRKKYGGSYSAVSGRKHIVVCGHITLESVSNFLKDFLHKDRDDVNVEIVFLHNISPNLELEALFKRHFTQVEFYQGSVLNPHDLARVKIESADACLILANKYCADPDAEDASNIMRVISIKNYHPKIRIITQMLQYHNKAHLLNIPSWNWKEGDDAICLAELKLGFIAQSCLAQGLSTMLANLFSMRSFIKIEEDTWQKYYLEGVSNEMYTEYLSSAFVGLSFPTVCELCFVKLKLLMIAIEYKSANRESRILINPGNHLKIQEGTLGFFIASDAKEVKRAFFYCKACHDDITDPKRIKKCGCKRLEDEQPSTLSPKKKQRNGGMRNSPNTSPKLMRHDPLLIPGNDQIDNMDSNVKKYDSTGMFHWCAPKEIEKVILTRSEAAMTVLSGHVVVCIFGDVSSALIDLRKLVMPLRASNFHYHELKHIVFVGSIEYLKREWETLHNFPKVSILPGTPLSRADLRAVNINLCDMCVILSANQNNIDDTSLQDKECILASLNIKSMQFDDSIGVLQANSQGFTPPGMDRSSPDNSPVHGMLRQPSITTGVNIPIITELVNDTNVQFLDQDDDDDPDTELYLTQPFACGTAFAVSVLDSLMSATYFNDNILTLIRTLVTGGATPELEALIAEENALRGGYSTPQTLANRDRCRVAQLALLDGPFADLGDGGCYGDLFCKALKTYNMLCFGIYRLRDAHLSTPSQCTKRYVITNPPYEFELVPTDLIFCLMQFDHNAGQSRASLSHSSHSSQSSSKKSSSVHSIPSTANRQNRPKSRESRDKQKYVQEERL
compound,measurement,setting,value
"O=C(O)c1ccc(Cl)c2c1[nH]c1c3ccc(C(F)(F)F)cc3oc12 [CTBIC, 4-chloro-7-(trifluoromethyl)-10H-benzofuro[3,2-b]indole-1-carboxylic acid]",Relative fluorescence unit (RFU) increase as compared to basal responses,"G733D/N736K BKCa channel [1]; 10 μM CTBIC, 30 min pre-treatment, AD-293 cells stably expressing G733D/N736K channel, stimulus buffer 10 mM free K+",up to 2.3 fold
same,increase in fluorescence signals,"G733D/N736K BKCa channel [1]; stimulus with 10 μM CTBIC, FIG. 5c",~2.3 times
same,fluorescence increase,WT BKCa channel [2],about 1.3 fold
same,impact on the induced fluorescence increase,parental AD-293 cells,minimum impact
same,effect on ionic current,"WT BKCa channel [3]; 10 μM CTBIC added to membrane patch, 100 nM [Ca2+]i, FIG. 4a",strongly potentiated
same,shift of G-V curve,"WT BKCa channel [3]; 10 μM CTBIC, FIG. 4c",shifted in the negative direction
same,effect on ionic current,"G733D/N736K BKCa channel [4]; 10 μM CTBIC added to membrane patch, 100 nM [Ca2+]i, FIG. 4b",strongly potentiated
same,shift of G-V curve,"G733D/N736K BKCa channel [4]; 10 μM CTBIC, FIG. 4c",shifted in the negative direction
same,shift in V1/2 value (V1/2 free vs. V1/2 10 μM),"G733D/N736K BKCa channel [4]; 10 μM CTBIC, compared with WT channel, FIG. 4d",much larger than the shift for the WT channel
